# Test results taken from patent publication US6750223B2, “4-Anilino[2,3-b]quinoline derivatives, their preparation processes and pharmaceutical compositions comprising the same” (Kaohsiung Medical University, priority 2002, dated 2004).
# Read-outs that look alike come from different tables or passages of the source.
# Assays:
# [1] = system: prostate cancer (PC-3 and DU-145); assay: NCI in vitro anticancer screen, prostate cancer subpanel; format: cell-based, human
# [2] = system: HOP-62; assay: NCI in vitro anticancer screen, HOP-62; format: cell-based, human
# [3] = system: renal cancer (786-0, A498, ACHN, CAKI-1, RXF 393, SN12C, TK-10, and UO-31); assay: NCI in vitro anticancer screen, renal cancer subpanel; format: cell-based, human; settings: read-out: GI50 Renal cancer
# [4] = system: colon cancer (COLO 205, HCC-2998, HCT-116, HCT-15, HT29, KM12, and SW-620); assay: NCI in vitro anticancer screen, colon cancer subpanel; format: cell-based, human; settings: read-out: GI50 Colon cancer
# [5] = system: NCI's full panel of 60 human cancer cell lines; assay: NCI in vitro anticancer screen, full panel mean; format: cell-based
# [6] = system: NCI-H23; assay: NCI in vitro anticancer screen, NCI-H23; format: cell-based, human; settings: non-small-cell lung cancer cell line
# [7] = system: NCI-H322M; assay: NCI in vitro anticancer screen, NCI-H322M; format: cell-based, human; settings: non-small-cell lung cancer cell line
# [8] = system: NCI-H522; assay: NCI in vitro anticancer screen, NCI-H522; format: cell-based, human
# [9] = system: melanoma (LOX IMVI, MALME-3M, M14, SK-MEL-2, SK-MEL-28, SK-MEL-5, UACC-62, and UACC-257); assay: NCI in vitro anticancer screen, melanoma subpanel; format: cell-based, human; settings: read-out: GI50 Melanoma
# [10] = system: A549/ATCC; assay: NCI in vitro anticancer screen, A549/ATCC; format: cell-based, human; settings: non-small-cell lung cancer cell line
# [11] = system: HOP-92; assay: NCI in vitro anticancer screen, HOP-92; format: cell-based, human
# [12] = system: leukemia (CCRF-CEM, HL-60 (TB), K-562, MOLT-4, RPMI-8226, and SR); assay: NCI in vitro anticancer screen, leukemia subpanel; format: cell-based; settings: read-out: GI50 Leukemia
# [13] = system: NCI-H226; assay: NCI in vitro anticancer screen, NCI-H226; format: cell-based, human; settings: non-small-cell lung cancer cell line
# [14] = system: breast cancer (MCF7, MCF7/ADR-RES, MDA-MB-231/ATCC, HS 578T, MDA-MB-435, MDA-N, and T-47D); assay: NCI in vitro anticancer screen, breast cancer subpanel; format: cell-based, human; settings: read-out: GI50 Breast cancer
# [15] = system: ovarian cancer (IGROV1, OVCAR-3, OVCAR-4, OVCAR-5, OVCAR-8, and SK-OV-3); assay: NCI in vitro anticancer screen, ovarian cancer subpanel; format: cell-based, human; settings: read-out: GI50 Ovarian cancer
# [16] = system: non-small cell lung cancer (A549/ATCC, EKVX, HOP-62, HOP-92, NCI-H226, NCI-H23, NCI-H322M, NCI-H460, and NCI-H522); assay: NCI in vitro anticancer screen, non-small-cell lung cancer subpanel; format: cell-based, human
# [17] = system: EKVX; assay: NCI in vitro anticancer screen, EKVX; format: cell-based, human; settings: non-small-cell lung cancer cell line
# [18] = system: CNS cancer (SF-268, SF-295, SF-539, SNB-19, SNB-75, and U251); assay: NCI in vitro anticancer screen, CNS cancer subpanel; format: cell-based, human; settings: read-out: GI50 CNS cancer
# [19] = system: NCI-H460; assay: NCI in vitro anticancer screen, NCI-H460; format: cell-based, human
# [20] = Homo sapiens, DU-145, subpanel value, read-out: GI50 Prostate cancer
# [21] = Homo sapiens, mean values over all cell lines tested, read-out: GI50 MG_MID
# [22] = mean over all cell lines, read-out: mean GI50
# [23] = non-small-cell lung cancer cell line
# [24] = Homo sapiens, subpanel value, concentration causing 50% cell growth inhibition
# [25] = Homo sapiens, subpanel value, read-out: GI50 Non-small-cell lung cancer
Structure (SMILES),"GI50 [1, 20] [µM]","GI50 ([3]; Homo sapiens, subpanel value) [µM]","GI50 ([4]; Homo sapiens, subpanel value) [µM]","GI50 [5, 21] [µM]","GI50 [5, 22] [µM]",melting point [°C],"GI50 ([9]; Homo sapiens, subpanel value) [µM]","GI50 [12, 24] [µM]","GI50 ([14]; Homo sapiens, subpanel value) [µM]","GI50 ([15]; Homo sapiens, subpanel value) [µM]","GI50 [16, 25] [µM]","GI50 ([18]; Homo sapiens, subpanel value) [µM]",other results
"CO/N=C(\C)c1ccc(Nc2c3ccccc3nc3occc23)cc1 [Compound 8b, (E)-1-[4-(Furo[2,3-b]quinolin-4-ylamino)phenyl]ethanone O-Methyloxime]",0.58,1.63,0.32,0.48,0.48,167 to 168,1.27,0.36,0.41,0.66,2.58,0.57,"GI50 ([2]; Homo sapiens, HOP-62, non-small-cell lung cancer cell line): 0.35 µM; GI50 ([6]; Homo sapiens, NCI-H23): 0.57 µM; GI50 ([7]; Homo sapiens, NCI-H322M): 1.22 µM; GI50 ([8]; Homo sapiens, NCI-H522): < 0.01 µM; GI50 [8, 23]: < 0.01 µM; GI50 ([10]; Homo sapiens, A549): 0.72 µM; GI50 ([11]; Homo sapiens, HOP-92, non-small-cell lung cancer cell line): 12.1 µM; GI50 ([13]; Homo sapiens, NCI-H226): 3.88 µM; GI50 ([17]; Homo sapiens, EKVX): 3.78 µM; GI50 ([19]; Homo sapiens, NCI-H460, non-small-cell lung cancer cell line): 0.56 µM"
"CC(=O)c1ccc(Nc2c3ccccc3nc3occ(Cl)c23)cc1 [Compound 13, 1-[4-(3-Chlorofuro[2,3-b]quinolin-4-ylamino)phenyl]ethanone]",,,,,,245 to 247,,,,,,,
"CO/N=C(\C)c1cccc(Nc2c3ccccc3nc3occc23)c1 [Compound 9b, (E)-1-[3-(Furo[2,3-b]quinolin-4-ylamino)phenyl]ethanone O-Methyloxime]",17.9,12.6,6.67,7.56,7.56,,8.5,4.23,8.68,11.6,10.9,11.5,
"C/C(=N\O)c1cccc(Nc2c3ccccc3nc3occc23)c1 [Compound 9a, (E)-1-[3-(Furo[2,3-b]quinolin-4-ylamino)phenyl]ethanone oxime]",16.2,9.9,5.35,5.6,5.60,248 to 249,4.81,3.64,3.62,13.6,8.01,10.5,
"COc1cccc2c1C(=O)c1c(O)c3c(c(O)c1C2=O)C[C@@](O)(C(C)=O)C[C@@H]3O[C@H]1C[C@H](N)[C@H](O)[C@H](C)O1 [DAM, Daunomycin, reference compound]",,,,,,,,,,,,,"GI50 ([1]; Homo sapiens, DU-145, read-out: GI50 Prostate cancer): 0.032 µM; GI50 ([3]; Homo sapiens): 0.048 µM; GI50 ([4]; Homo sapiens): 0.083 µM; GI50 ([5]; Homo sapiens, read-out: GI50 MG_MID): 0.044 µM; GI50 ([9]; Homo sapiens): 0.047 µM; GI50 ([12]; Homo sapiens): < 0.01 µM; GI50 ([14]; Homo sapiens): 0.11 µM; GI50 ([15]; Homo sapiens): 0.062 µM; GI50 ([16]; Homo sapiens, read-out: GI50 Non-small-cell lung cancer): 0.043 µM; GI50 ([18]; Homo sapiens): 0.02 µM"
"CC(=O)c1cccc(Nc2c3ccccc3nc3occc23)c1 [Compound 7, 1-[3-(Furo[2,3-b]quinolin-4-ylamino)phenyl]ethanone]",12,10.6,5.11,5.27,5.27,158 to 159,6.09,3.22,5.32,11.3,14.5,7.63,
"C=C1CC(C)(c2ccc(Nc3c4ccccc4nc4occc34)cc2)OC1=O (centres unmarked) [Compound 6, 5-[4-(Furo[2,3-b]quinolin-4-ylamino)phenyl]-2,3,4,5-tetrahydro-5-methyl-3-methylidenefuran-2-one]",1.32,4.76,1.56,1.77,,,1.71,0.9,3.27,1.92,5.59,5.3,"GI50 ([5]; Homo sapiens, mean over all cell lines, read-out: mean GI50): 1.77 µM"
"C/C(=N\O)c1ccc(Nc2c3ccccc3nc3occc23)cc1 [Compound 8a, (E)-1-[4-(Furo[2.3-b]quinolin-4-ylamino)phenyl]ethanone oxime]",,,,,0.35,,,,,,,,"GI50 ([1]; subpanel value, read-out: GI50 Prostate cancer): 0.53 µM; GI50 [2, 23]: 0.18 µM; GI50 ([3]; subpanel value): 2.68 µM; GI50 ([4]; subpanel value): 0.17 µM; GI50 ([5]; mean values over all cell lines tested, read-out: GI50 MG_MID): 0.35 µM; GI50 [6]: 0.38 µM; GI50 [7]: 12.2 µM; GI50 [8]: 0.074 µM; GI50 [8, 23]: 0.074 µM; GI50 ([9]; subpanel value): 0.95 µM; GI50 [10]: 0.45 µM; GI50 [11, 23]: 10.9 µM; GI50 ([12]; subpanel value, concentration causing 50% cell growth inhibition): 0.14 µM; GI50 [13]: 11.5 µM; GI50 ([14]; subpanel value): 0.42 µM; GI50 ([15]; subpanel value): 0.53 µM; GI50 ([16]; subpanel value, read-out: GI50 Non-small-cell lung cancer): 4.44 µM; GI50 [17]: 4.03 µM; GI50 ([18]; subpanel value): 0.35 µM; GI50 [19, 23]: 0.21 µM"
"Nc1cc(CO)cc(Nc2c3ccccc3nc3occc23)c1 [Compound 4, 3-(Furo[2,3-b]quinolin-4-ylamino)-5-(hydroxymethyl)aniline]",53.6,37.7,25.2,31.1,,236 to 237,38.6,23,23.9,47.7,40.9,45.9,
"CC(=O)c1ccc(Nc2c3ccccc3nc3occc23)cc1 [Compound 5, 1-[4-(Furo[2,3-b]quinolin-4-ylamino)phenyl]ethanone]",0.021,0.035,0.011,0.025,0.025,220 to 221,0.018,< 0.01,0.017,0.039,1.75,0.016,"GI50 ([2]; Homo sapiens, HOP-62): < 0.01 µM; GI50 [2, 23]: < 0.01 µM; GI50 ([5]; Homo sapiens, all types of cancer cells tested except non-small-cell lung cancer, read-out: mean GI50 in each type of cancer cells): < 0.04 µM; GI50 ([6]; Homo sapiens, NCI-H23): 0.037 µM; GI50 ([7]; Homo sapiens, NCI-H322M): 0.68 µM; GI50 ([8]; Homo sapiens, NCI-H522): < 0.01 µM; GI50 [8, 23]: < 0.01 µM; GI50 ([10]; Homo sapiens, A549): 0.57 µM; GI50 ([11]; Homo sapiens, HOP-92): 12.4 µM; GI50 ([13]; Homo sapiens, NCI-H226): 0.31 µM; GI50 ([16]; Homo sapiens, read-out: average GI50 non-small-cell lung cancer): 1.75 µM; GI50 ([19]; Homo sapiens, NCI-H460): 0.01 µM"
"COc1cc(NS(C)(=O)=O)ccc1Nc1c2ccccc2nc2ccccc12 [m-AMSA, 4′-(9-acridinylamino)methanesulfonyl-m-anisidine, reference compound]",0.16,0.87,1.07,0.44,0.44,,0.58,0.1,0.58,1.05,0.35,0.42,
